Some test systems named below: SK-MEL-2 melanoma; HOP-92 NSCLC; UACC-62 melanoma; OVCAR-4 ovarian; COLO 205 colon; CCRF-CEM leukemia; SN12C renal; HCT-15 colon; SK-MEL-5 melanoma; RXF 393 renal.
Assay in all cases: DTP human tumour cell line panel, 48 h

In general, TGI refers to the concentration at which net growth stops. Higher therefore signals less potent growth arrest. The GI50 is the concentration that inhibits growth by half.

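Interpolation was linear, between the two tested concentrations surrounding the appropriate level; five concentrations were tested over 48 hours in 96-well plates. GI50 is the concentration that inhibits growth by half. TGI: total growth inhibition.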

With `Cc1cc(Cl)ccc1NC(=O)CCCC(=O)C(C(=O)c1ccccc1)c1ccccc1` (stereo unspecified), the TGI in the assay with SK-MEL-2 melanoma, in the assay on HOP-92 NSCLC, in the assay with UACC-62 melanoma, in the assay with OVCAR-4 ovarian, in the assay with COLO 205 colon and in the assay on CCRF-CEM leukemia was greater than 100 µM in each case. In addition, the TGI with SN12C renal and with HCT-15 colon was greater than 100 µM throughout.
For `CCN(CC)CCOc1nc2cc(OC)c(OC)cc2c2c1-c1ccc(OC)cc1C2=O`, the GI50 was 16.1 µM with SK-MEL-5 melanoma; 15.7 µM with HOP-92 NSCLC; 15.5 µM in the assay on UACC-62 melanoma; 13.9 µM with OVCAR-4 ovarian; 11.5 µM with COLO 205 colon; 0.54 µM with CCRF-CEM leukemia. Moreover, the GI50 in the assay with SN12C renal is 5.29 µM; with RXF 393 renal, 12.8 µM; in the assay with HCT-15 colon, 1.79 µM. For the same compound, the TGI amounted to 30.2 µM in the assay with SK-MEL-5 melanoma; 32.1 µM in the assay on HOP-92 NSCLC; 36.3 µM in the assay with UACC-62 melanoma; 33.5 µM with OVCAR-4 ovarian; 24.6 µM with COLO 205 colon; 12.3 µM in the assay with CCRF-CEM leukemia. The TGI in the assay with SN12C renal stood at 21.1 µM; with RXF 393 renal it was 25.9 µM; in the assay on HCT-15 colon, 3.78 µM.
Regarding `CC[C@H](C)[C@H](NC(=O)c1nccn1C)C(=O)N(C)[C@H](C[C@@H](OC(C)=O)c1nc(C(=O)N[C@@H](Cc2ccccc2)C[C@H](C)C(=O)OC)cs1)C(C)C`, the GI50 in the assay with SK-MEL-2 melanoma is 0.806 µM; with SK-MEL-5 melanoma it was 0.668 µM; in the assay on HOP-92 NSCLC, 4.86 µM; in the assay with UACC-62 melanoma, 0.289 µM; in the assay on OVCAR-4 ovarian it was 1.88 µM; with COLO 205 colon, 0.99 µM. Besides, the GI50 in the assay on CCRF-CEM leukemia was 1.04 µM; in the assay on SN12C renal, 2.41 µM; in the assay with HCT-15 colon, 0.999 µM. The TGI in the assay on SK-MEL-2 melanoma is greater than 33.3 µM; in the assay with SK-MEL-5 melanoma, 3.67 µM; in the assay on HOP-92 NSCLC it was greater than 33.3 µM; with UACC-62 melanoma, greater than 33.3 µM; with OVCAR-4 ovarian it was greater than 33.3 µM; with COLO 205 colon, 4.11 µM. In addition, the TGI in the assay with CCRF-CEM leukemia, in the assay with SN12C renal and in the assay on HCT-15 colon was greater than 33.3 µM in each case.
Take `O=c1oc2cc(OS(=O)(=O)c3ccccc3)ccc2c2c1CCCCC2`: the GI50 was greater than 100 µM with SK-MEL-2 melanoma; 2.88 µM in the assay with SK-MEL-5 melanoma; 4.73 µM in the assay on UACC-62 melanoma; 4.58 µM with OVCAR-4 ovarian; 3.51 µM in the assay with COLO 205 colon; 4.56 µM in the assay on CCRF-CEM leukemia. In addition, the GI50 was 7.24 µM in the assay with SN12C renal, 4.55 µM with RXF 393 renal and 3.92 µM in the assay on HCT-15 colon. Further, the TGI in the assay with SK-MEL-2 melanoma, with SK-MEL-5 melanoma, in the assay with UACC-62 melanoma, with OVCAR-4 ovarian, with COLO 205 colon and in the assay on CCRF-CEM leukemia was greater than 100 µM each time. The TGI in the assay on SN12C renal, in the assay with RXF 393 renal and with HCT-15 colon was greater than 100 µM each time.
With `[N-]=[N+]=Nc1c(Br)c(=O)[nH]c(=O)n1COCCO`, the concentration for total growth inhibition (TGI) in the assay with SK-MEL-5 melanoma, with HOP-92 NSCLC, with UACC-62 melanoma, with OVCAR-4 ovarian, with COLO 205 colon and with CCRF-CEM leukemia was greater than 100 µM in each case. For the same compound, the TGI with SN12C renal and in the assay on RXF 393 renal was greater than 100 µM throughout.
Regarding `c1ccc(COc2cccc3cccnc23)cc1`, the TGI with SK-MEL-5 melanoma, with HOP-92 NSCLC, in the assay with UACC-62 melanoma, in the assay with OVCAR-4 ovarian, in the assay with COLO 205 colon and in the assay with CCRF-CEM leukemia was greater than 100 µM throughout. For the same compound, the TGI with SN12C renal and in the assay with RXF 393 renal was greater than 100 µM throughout.
Turning to `CC1=NN(C(=O)c2cc(Cl)cc([N+](=O)[O-])c2)C(=O)C1N=Nc1ccccc1C(=O)O` (stereo unspecified), the TGI with SK-MEL-2 melanoma, in the assay on SK-MEL-5 melanoma, in the assay on UACC-62 melanoma, with COLO 205 colon, with CCRF-CEM leukemia and in the assay with SN12C renal was greater than 100 µM throughout. The compound further had a TGI in the assay with RXF 393 renal greater than 100 µM.
Consider `CCOC(=O)/C(C#N)=C(N)/C(=N\Nc1cccc(C(F)(F)F)c1)C(=O)OCC`, for which the TGI in the assay with SK-MEL-2 melanoma, in the assay on SK-MEL-5 melanoma, in the assay with HOP-92 NSCLC, with UACC-62 melanoma, with OVCAR-4 ovarian and in the assay on COLO 205 colon was greater than 100 µM throughout. Further, the TGI in the assay with CCRF-CEM leukemia, in the assay on SN12C renal and in the assay with HCT-15 colon was greater than 100 µM in each case.
In the case of `COC(=O)C12C3C4C1C1C2C3C41C(=O)N(C(C)C)C(C)C` (stereo unspecified), the TGI in the assay on SK-MEL-5 melanoma, in the assay with HOP-92 NSCLC, in the assay with UACC-62 melanoma, in the assay with OVCAR-4 ovarian, in the assay on COLO 205 colon and with CCRF-CEM leukemia was greater than 100 µM in each case. Further, the TGI in the assay with SN12C renal and in the assay with HCT-15 colon was greater than 100 µM each time.
`Cc1cccc(O)c(=O)c1`: the TGI is greater than 100 µM in the assay with SK-MEL-5 melanoma; greater than 100 µM in the assay on HOP-92 NSCLC; greater than 100 µM in the assay with UACC-62 melanoma; greater than 100 µM in the assay on OVCAR-4 ovarian; 37.8 µM with COLO 205 colon; 33.8 µM in the assay on CCRF-CEM leukemia. Moreover, the TGI in the assay on SN12C renal, in the assay on RXF 393 renal and in the assay with HCT-15 colon was greater than 100 µM in each case.
On to `CCCCCCCCCCCCCCC(O)C1CCC(C(O)CCC(O)CCCCCC(O)CC2=CC(C)OC2=O)O1` (stereo unspecified), for which the TGI was 9.03 µM with SK-MEL-2 melanoma; 2.3 µM in the assay with SK-MEL-5 melanoma; 11.7 µM with HOP-92 NSCLC; 13.3 µM in the assay with UACC-62 melanoma; 8.89 µM in the assay with OVCAR-4 ovarian; 8.41 µM with COLO 205 colon. The results for the TGI in the assay on CCRF-CEM leukemia, with SN12C renal and in the assay with HCT-15 colon were 5.12 µM, 9.24 µM and 5.25 µM, respectively.
Consider `CC(=O)NS(=O)(=O)c1ccc(-n2nc(-c3ccccc3)cc2C2=CC(=O)C=CC2=O)cc1`, for which the GI50 in the assay with SK-MEL-2 melanoma is greater than 100 µM; in the assay on SK-MEL-5 melanoma, 44.2 µM; in the assay on HOP-92 NSCLC it was greater than 100 µM; in the assay with UACC-62 melanoma, greater than 100 µM; with COLO 205 colon it was greater than 100 µM; with SN12C renal, greater than 100 µM. Also, the GI50 in the assay on RXF 393 renal and in the assay with HCT-15 colon was greater than 100 µM in each case. The TGI in the assay on SK-MEL-2 melanoma, in the assay on SK-MEL-5 melanoma, with HOP-92 NSCLC, in the assay with UACC-62 melanoma, with COLO 205 colon and with SN12C renal was greater than 100 µM each time. The TGI in the assay on RXF 393 renal and in the assay with HCT-15 colon was greater than 100 µM in each case.

The values above are taken from PubChem BioAssay (NCI).
